The values that follow come from patent US9718771B2, “Aniline derivative, pharmaceutical composition containing same, and use thereof” (Kissei Pharmaceutical Co., Ltd., priority 2014, dated 2017).

Series [1] deals with Naïve T cells-transferred colitis model. The series is described as follows: Drug efficiency evaluation in naïve T cells-transferred colitis model. In kind it is in vivo. Particulars: SCID mice, mean ± standard error. The procedure:
The Drug Efficiency Evaluation in Naïve T Cells—Transferred Colitis Model
(1) Purification of CD45RB Positive Naïve T Cells and Transfer the Cells into SCID Mice
After female BALB/c mice (Charles River Japan, 8-weeks-old in use) were sacrificed by blood removal from cervical vein under inhalation anesthesia with isoflurane spleens were harvested from these mice. Spleens were washed with ice-cold PBS (phosphate buffered saline, Invitrogen) and stored in 50 mL tube containing PBS on ice. Spleens stored on ice were mashed with the upper portion of slide glasses inside a biological safety cabinet, and filtered through a cell filter (pore size 70 μm), and the filtrate was centrifuged at 500×g, room temperature for 5 minutes. After the supernatant was removed, 12 mL of RBC lysis buffer (Biolegend) was added to a cell pellet and it was resuspended and left for about 3 minutes. The supernatant was removed after centrifugation and the hemolytic process was performed by repeating same procedure once again.
The cells were purified with Mouse Naive T cell CD4^+/CD62L^+/CD44^low Colum Kit (R&D systems). The cells performed with the hemolytic process, were suspended by column buffer attached to the above Column Kit, and purified through a cell filter (pore size 70 μm) after centrifugation at 500×g, room temperature for 5 minutes. The cells were resuspended with column buffer, and antibody cocktails attached to the above Column Kit were added to this and mixed. After that, the cells were purified according to the protocol of the Column Kit.
Next, purification of CD45RB positive cells was performed by MACS (registered mark) separator (Miltenyi Biotec). The purified cells were suspended with 2 mL of PBS containing 0.5% BSA, and reacted at room temperature for 15 minutes after adding FITC (fluorescein isothiocyanate)-labeled anti-CD45RB antibody (Biolegend). After washing two times with PBS containing 0.5% BSA by centrifugation, the cells were resuspended with 2 mL of PBS containing 0.5% BSA and reacted at room temperature for 10 minutes after adding anti-FITC microbeads (Miltenyi Biotec). After washing one time with PBS containing 0.5% BSA by centrifugation, the cells were resuspended with 3 mL of PBS containing 0.5% BSA, and a fraction of CD45RB positive cells was purified according to the protocol of MACS (registered trademark) separator. In the process of elution after detached from MACS (registered trademark) separator, the cells were separated with 5 mL of PBS. The cell suspension was washed one time by centrifugation with PBS, resuspended by appropriate PBS and measured the cell number as naïve T cells suspension for transfer. Female CB17/Icr-scid/scid Jcl (SCID mice) (Charles River Japan, 8-weeks-old in use) were induced colitis by intraperitoneal administration of 500 μL (divided into 250 μL two times) of naïve T cells suspension prepared at 6×10^5 cells/mL by PBS.
(2) Measurement of Body Weight and Procedure for Administration of Drugs
Body weights were measured at day 1, 8 and 15 as day 0 when naïve T cells were transferred to mice. Mice were grouped evenly, based on body weight change at day 15. The measurement of body weight was performed two times a week after day 15. A solvent (Vehicle) and test compounds were administered twice a day from the evening of day 15. The administration solution was prepared as indicated below. Firstly, 0.5% methyl cellulose (Wako pure chemicals) of 1/10 volume of total volume was added to test compound, and a suspension was prepared by sonication. […] After that, administration solutions for test compounds were prepared by sonication while adding distilled water of 9/10 volume of total volume to these suspensions in several batches. A solution prepared in the same volume ratios of 0.5% methyl cellulose and distilled water as administration solutions for test compounds was used as vehicle. Administration solutions for vehicle or test compounds were orally administered to mice at 5 mL/kg.

The next series deals with male guinea pigs. The series is described as follows: Confirmation test for reduction effects on heart rate. Particulars: anesthetized guinea pigs, intravenous (vein of penis), 0.03 mg/kg. Type of series: in vivo. An excerpt: Confirmation Test for Reduction Effects on Heart Rate
Effects on heart rate of a test compound and fingolimod, which is an S1P1 receptor agonist, were confirmed using male guinea pigs (Japan SLC, 5 to 8-weeks-old in use). Guinea pigs were incised in the median line of cervical region under anesthesia with pentobarbital (Kyoritsu Pharmaceutical) by intraperitoneal administration. A PE90 catheter filled with saline (Otsuka Pharmaceutical Factory) containing 50 units/mL heparin (Mochida Pharmaceutical) was inserted to right common carotid artery. By holding the insertion site of the catheter with silk sutures, it was performed to avoid bleeding from the insertion site and to fix the catheter. After it was confirmed that blood flow reached into the catheter, an apical end of catheter opposite to the insertion site of artery was connected to pressure transducer, and blood pressure and heart rate were measured via a strain pressure amplifier and a heart rate counter unit, respectively. […]
After it was confirmed that blood pressure and heart rate were stabilized in guinea pigs, vehicle, the test compound or fingolimod was administered into the vein of penis at 0.25 mL/kg using 1 mL syringes with needles of 27G. The changes of blood pressure and heart rate were measured every 5 minutes after administration of vehicle, the test compound or fingolimod.

[2] abbreviates: oral twice a day, 1.5 mg/kg, vehicle group = 100%.

`C[C@]12C=CC(=O)C=C1CC[C@@H]1[C@@H]2[C@@H](O)C[C@@]2(C)[C@H]1CC[C@]2(O)C(=O)CO` [Prednisclone, reference compound]: the “Body weight change ratio (%)” value in series [1] (oral twice a day from day 15, 1.5 mg/kg, day 30) was −10.4 ± 1.4%. In series [1] (setting [2]), the “Colon weight (%)” value stood at 58.3 ± 18.9% and the “DAI score (%)” value amounted to 104.4 ± 20.0%. As to `CCCCCCCCc1ccc(CCC(N)(CO)CO)cc1` [fingolimod], in the series with male guinea pigs, the “effect on heart rate” value is listed as “remarkable reduction of heart rate”.

For the compound `Nc1ccc(O)c(C(=O)O)c1` [5-Aminosalicylic acid, reference compound], in series [1] (oral twice a day, vehicle group = 100%), the “Colon weight (%)” value amounted to 75.9 ± 58.3%.
